The conditions of assay [1]: normal rats, high-fat diet, daily peritoneal injection; cited from earlier work.
Assay [2] is described as follows: Body weight, adipose and lean tissue weight and core temperature in ZDF rats. It is filed as in vivo, Zucker Diabetic fatty (ZDF) rats. The following applies: high dose 25 μg/100 g BW. The method, then: (§1) Adult male rat bred in the animal room facilities of Laboratory of Fundamental and Applied. Bioenergetics (Wistar strain) or purchased from Charles-River Laboratories, Domaine des oncins, L'ARBRESLE France [(genetically obese normoglycemic (Zucker or Fa/Fa) or diabetic (ZDF)] were caged individually in stainless steel hanging cages and maintained in a 22° C., 50±10% relative humidity and 12 h:12 h light:dark environment. All animals were fed ad libitum with a standard rat chow (Safe A04, Villemoisson, France) and tap water. Body mass and food intake were recorded twice/thrice a week and fresh food was provided, at the same time to ensure minimal disturbance to the animals' food, behavior.
(§2) Eight-week old rats (300 g±10 g) were anesthetized by simultaneous intraperitoneal injection of diazepam 4 mg/kg and ketamine 100 mg/kg. In order to maintain body temperature during the surgery (10 min), animals were placed on a warm blanket. After interscapular shaving, a small incision of 0.5 cm of the skin allows the subcutaneous implantation of a small pellet (containing rT3 or 3′,3-T2) with a 10-gauge precision trochar. The pellets, manufactured by Innovative Research of America (Sarasota, Fla., USA) are constituted of a biodegradable matrix that effectively and continuously release the active product in the animal.
3-5 diiodothyronine (3-5 T2) or 3-3′diiodothyronine (3-3′ T2) were used at different doses (5, 0.5, or 0.1 mg/pellet) were implanted in order to provide a continuous and constant drug delivery over 60 days (which represents 25 μg, 2.5 μg or 0.5 μg/day/100 g BW).

A short description of assay [3]: Blood glucose in Goto-Kakizaki (GK) rats. It is filed as in vivo. The following applies: low dosage 2.5 μg/100 g BW, 10 days, n=5, p<0.01. The method, then:
(§3) Rats were genetically obese normoglycemic (Zucker or Fa/Fa), 10-11 week-old diabetic rats (ZDF) or genetic non-overweight diabetic (type 2 diabetes) rats (Goto-Kakizaki (GK) model).
(§4) The day of the study, after a fasted period overnight (18 h), blood samplings will be taken in awake rats from the tail vein.
(§5) Glucose and 3-hydroxybutyrate (3-HB) were measured, enzymatically and non esterified fatty acid (NEFA) by colorimetric assay (Wako Chemicals).

A short description of assay [4]: Blood parameters (glucose, HbA1c, insulin, cholesterol, triglycerides) in ZDF rats. The format is in vivo, Zucker Diabetic fatty (ZDF) rats. The following applies: high dosage 25 μg/100 g BW. As to the method:
as §3, §4
The following biochemical parameters were analyzed: glycemia, insulinemia, HbA1c, TG and Cholesterol.
Insulin levels were determined with commercial kits (Linco Research).
as §5
Triglycerides and cholesterol were measured by classical routine automate apparatus.

Assay [5] can be described thus: Body weight and food intake of Zucker rats. The format is in vivo. As to conditions: Zucker (Fa/Fa) rats, 30 days, FIG. 8 legend high dosage 25 μg/100 g BW. The method, then:
as §1
as §2, with “animal. […]” for “animal.”

Entries after “also recorded” stand apart in the source; their conditions may differ.

For `N[C@@H](Cc1cc(I)c(Oc2ccc(O)cc2)c(I)c1)C(=O)O` [3,5-T2, 3,5-diiodothyronine], in assay [1], the “Fat deposit vs untreated rats” value is “less fat deposit” and the “Weight gain vs untreated rats” value is on record as “gained less weight”. For the same compound, in assay [2] (4 weeks), the “Fat mass gain vs placebo” value is recorded as “less” and the “Lean body mass increase vs placebo” value is reported as “higher”. Moreover, in assay [2] (15 days), the “Core temperature vs placebo” value is “higher as compared to placebo”. In assay [3], the “Change in blood glucose concentration as compared to control animals” value is reported as −24±6%. In addition, in assay [4], the “Plasmatic cholesterol at the end of the treatment vs placebo” value was “significantly lower” and the “Plasmatic triglycerides at the end of the treatment vs placebo” value is recorded as “not different between the two groups”. For the same compound, in assay [4] (4 weeks), the “Glycated hemoglobin (HbA1c)” value is “significant decrease” and the Plasmatic insulin concentration entry is on record as “maintenance of insulin concentration at a high level; also recorded: increasing plasmatic insulin concentration”. For the same compound, the Plasmatic glucose concentration result in assay [4] (from week 1 over 4 weeks) is “dramatic decrease; also recorded: decreasing glucose concentration”. Moreover, the “Food intake vs placebo” value in assay [5] is “significantly lower as compared to placebo”. The “Animal growth (body weight) vs placebo” value in assay [5] (text says low 3,5-T2 group) is “no significant growth”.

These data come from US20110028554A1, “PHARMACEUTICAL COMPOSITIONS COMPRISING DIIODOTHYRONINE AND THEIR THERAPEUTIC USE” (UNIVERSITE JOSEPH FOURIER, priority 2007, published 2011).
